Source: US12084420B2, “Indoline compounds for inhibiting KIF18A” (Volastra Therapeutics, Inc., priority 2021, dated 2024)
Like-named read-outs stand apart in the source and are kept apart here.

Molecular target: hKIF18A (1-374) (Homo sapiens (Human), UniProt Q8NI77)
Test: Inhibition of KIF18A microtubule-dependent ATPase activity (ADP-Glo)
[1] = KIF18A microtubule-dependent ATPase activity, biochemical assay

Chain of hKIF18A (1-374) (Q8NI77 whole entry, looked up): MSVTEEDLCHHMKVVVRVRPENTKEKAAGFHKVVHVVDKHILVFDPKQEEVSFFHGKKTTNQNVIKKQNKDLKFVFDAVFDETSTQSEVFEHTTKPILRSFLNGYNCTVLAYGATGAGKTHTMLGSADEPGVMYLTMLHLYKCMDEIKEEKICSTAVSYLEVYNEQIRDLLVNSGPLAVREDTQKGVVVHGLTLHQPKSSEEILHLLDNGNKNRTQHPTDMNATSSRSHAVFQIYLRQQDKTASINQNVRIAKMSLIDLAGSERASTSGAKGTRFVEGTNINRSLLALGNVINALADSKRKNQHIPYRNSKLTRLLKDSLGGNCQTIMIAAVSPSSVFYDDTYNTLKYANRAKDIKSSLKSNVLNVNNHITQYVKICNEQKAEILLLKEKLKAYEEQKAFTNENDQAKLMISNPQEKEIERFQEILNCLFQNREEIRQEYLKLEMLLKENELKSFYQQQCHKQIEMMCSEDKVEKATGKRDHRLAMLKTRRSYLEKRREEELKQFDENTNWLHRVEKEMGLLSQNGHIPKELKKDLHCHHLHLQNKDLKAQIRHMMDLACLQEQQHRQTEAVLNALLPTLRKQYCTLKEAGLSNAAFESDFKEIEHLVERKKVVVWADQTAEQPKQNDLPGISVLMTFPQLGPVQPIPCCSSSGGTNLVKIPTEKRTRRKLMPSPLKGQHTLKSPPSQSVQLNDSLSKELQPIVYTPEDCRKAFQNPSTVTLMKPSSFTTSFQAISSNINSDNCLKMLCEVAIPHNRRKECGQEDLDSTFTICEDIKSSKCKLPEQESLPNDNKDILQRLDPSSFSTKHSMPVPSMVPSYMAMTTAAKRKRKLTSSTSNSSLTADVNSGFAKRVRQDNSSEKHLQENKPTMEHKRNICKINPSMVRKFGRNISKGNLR
Chain of hKIF18A (1-374) (Q2XVP4 whole entry partner, looked up): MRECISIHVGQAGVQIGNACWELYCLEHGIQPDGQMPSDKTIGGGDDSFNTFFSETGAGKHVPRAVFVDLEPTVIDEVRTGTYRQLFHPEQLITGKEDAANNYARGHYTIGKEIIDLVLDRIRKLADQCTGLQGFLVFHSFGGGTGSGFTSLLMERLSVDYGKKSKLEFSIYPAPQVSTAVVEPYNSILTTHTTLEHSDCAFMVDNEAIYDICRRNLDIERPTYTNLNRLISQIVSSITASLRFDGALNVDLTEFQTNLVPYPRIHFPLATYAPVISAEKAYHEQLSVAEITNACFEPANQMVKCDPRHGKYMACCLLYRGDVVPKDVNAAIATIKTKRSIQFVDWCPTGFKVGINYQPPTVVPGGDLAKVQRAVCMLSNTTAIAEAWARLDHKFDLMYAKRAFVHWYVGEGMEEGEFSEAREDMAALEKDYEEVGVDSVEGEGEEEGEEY
Chain of hKIF18A (1-374) (P02554 whole entry partner, looked up): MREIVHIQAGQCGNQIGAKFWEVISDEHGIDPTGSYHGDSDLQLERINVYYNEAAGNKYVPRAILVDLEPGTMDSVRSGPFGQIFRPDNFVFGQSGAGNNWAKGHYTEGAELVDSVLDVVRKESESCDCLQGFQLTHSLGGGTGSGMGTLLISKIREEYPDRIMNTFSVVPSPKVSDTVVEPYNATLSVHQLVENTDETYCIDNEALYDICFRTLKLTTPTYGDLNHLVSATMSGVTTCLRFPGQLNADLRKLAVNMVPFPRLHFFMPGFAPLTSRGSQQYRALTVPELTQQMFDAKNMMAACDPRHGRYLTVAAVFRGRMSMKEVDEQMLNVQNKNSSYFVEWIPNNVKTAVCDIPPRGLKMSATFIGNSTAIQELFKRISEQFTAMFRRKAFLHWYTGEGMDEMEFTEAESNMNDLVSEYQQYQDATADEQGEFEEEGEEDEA
Method: Biological Assays Inhibition of KIF18A Microtubule-Dependent ATPase Activity:
Test compounds were plated in a 3× dilution scheme in a 384-well plate. Assay buffer: 80 mM PIPES (pH 6.9), 1 mM MgCl2, 75 mM KCl, 1 mM EGTA, 1 mM DTT, 0.01% BSA, 0.005% Tween-20, 1 μM Taxol in H2O. […] After incubation at room temperature for 30 min, 2.5 μL of microtubule mix was added [0.2 mg/mL pre-formed microtubules, 2.0 mM ATP in assay buffer], the plate was centrifuged for 30 s and then incubated at 28° C. for 60 min. 5 μL of Promega® ADP-Glo Max R1 was added, the plate was centrifuged for 30 s, and the mixture incubated for 4 h at room temperature. 10 μL of Promega® ADP-Glo Max R2 was added, the plate centrifuged for 30 s, and incubated for 60 min at room temperature. Luminescence was measured with an Envision plate reader, and % Inhibition was calculated for each well as: ([max−min]−[test−min])/[max−min]. IC50 values were calculated from concentration vs. % Inhibition data via a four-parameter variable slope model.

Compound | IC50 [1] | IC50
O=C(c1cccc(S(=O)(=O)N2CCCC2)c1)N1CC2(CCC3(CC3)CC2)c2ccccc21 [Compound 8, dispiro[cyclopropane-1,1′-cyclohexane-4′,3″-indolin]-1″-yl(3-(pyrrolidin-1-ylsulfonyl)phenyl)methanone] | 940 nM | 
CC(C)(C)NS(=O)(=O)c1ccc(C(=O)N2CC3(CCCCC3)c3cc(NS(C)(=O)=O)ccc32)s1 [Compound 60, N-(tert-butyl)-5-(5′-(methylsulfonamido)spiro[cyclohexane-1,3′-indoline]-1′-carbonyl)thiophene-2-sulfonamide] | 1200 nM | 
CS(=O)(=O)Nc1ccc2c(c1)C1(CCC3(CC3)CC1)CN2C(=O)c1cccc(C(O)CC2CCC2)c1 (stereo not drawn) [Compound 305, N-(1″-(3-(2-cyclobutyl-1-hydroxyethyl)benzoyl)dispiro [cyclopropane-1,1′-cyclohexane-4′,3″-indolin]-5″-yl)methanesulfonamide] | 8.9 nM | 
CC(C)(C)NS(=O)(=O)c1ccc(F)c(C(=O)N2CC3(CCCCC3)c3cc(NS(C)(=O)=O)ccc32)c1 [Compound 97, N-(tert-butyl)-4-fluoro-3-(5′-(methylsulfonamido)spiro[cyclohexane-1,3′-indoline]-1′-carbonyl)benzenesulfonamide] | 850 nM | 
CC(C)(C)[C@@H](O)c1ccc(C(=O)N2CC3(CCC4(CC4)CC3)c3cc(NS(=O)(=O)CCO)ccc32)o1 (single isomer, unassigned) [Compound 371a] | 30 nM | 
CS(=O)(=O)Nc1ccc2c(c1)C1(CCC3(CC3)CC1)CN2C(=O)c1cccc(S(=O)(=O)NC2(CO)CC2)c1 [Compound 202, N-(1-(hydroxymethyl)cyclopropyl)-3-(5″- (methylsulfonamido)dispiro[cyclopropane-1,1′-cyclohexane-4′,3″-indoline]-1″-carbonyl)benzenesulfonamide] | 53 nM | 
N-(1-hydroxy-2-methylpropan-2-yl)-3- (5″- (methylsulfonamido)dispiro[cyclopropane- 1,1′-cyclohexane-4′,3″-indoline]- 1″-carbonyl)benzenesulfonamide [Compound 194] | 50 nM | 
CC(C)(C)[C@H](O)c1ccc(C(=O)N2CC3(CCC4(CC4)CC3)c3cc(NS(=O)(=O)CCO)ccc32)o1 (single isomer, unassigned) [Compound 371b] | 40 nM | 
CC(C)(C)NS(=O)(=O)c1cc(C(=O)N2CC3(CCC4(CC4)CC3)c3cc(NS(=O)(=O)CCO)ccc32)cs1 [Compound 274, N-(tert-butyl)-4-(5″-((2-hydroxyethyl)sulfonamido)dispiro [cyclopropane-1,1′-cyclohexane-4′,3″- indoline]-1″-carbonyl)thiophene-2-sulfonamide] | 6 nM | 
CS(=O)(=O)Nc1ccc2c(c1)C1(CCC3(CC3)CC1)CN2C(=O)c1cccc(S(=O)(=O)NC2CC(F)C2)c1 (stereo not drawn) [Compound 204, N-(3-fluorocyclobutyl)-3-(5″- (methylsulfonamido)dispiro [cyclopropane-1,1′-cyclohexane-4′,3″- indoline]-1″-carbonyl)benzenesulfonamide] |  | 13 nM
COc1ccc(C(=O)N2CC3(CCC4(CC4)CC3)c3cc(NS(C)(=O)=O)ccc32)cc1S(=O)(=O)N1CC(F)(F)C1 [Compound 302, N-(1″-(3-((3,3-difluoroazetidin-1-yl)sulfonyl)-4-methoxybenzoyl)dispiro[cyclopropane-1,1′-cyclohexane-4′,3″-indolin]-5″- yl)methanesulfonamide] | 19 nM | 
CC1CCC2(CC1)CN(C(=O)c1cccc(S(=O)(=O)N3CCC(F)(F)CC3)c1)c1ccc(Br)cc12 (stereo not drawn) [Compound 15, (5′-bromo-4-methylspiro[cyclohexane-1,3′-indolin]-1′-yl)(3-((4,4-difluoropiperidin-1-yl)sulfonyl)phenyl)methanone] | 780 nM | 740 nM
CC(C)(C)NS(=O)(=O)c1cccc(C(=O)N2CC3(CCC4(CC4)CC3)c3cc(C(O)C(F)(F)F)ccc32)c1 (stereo not drawn) [Compound 338, N-(tert-butyl)-3-(5″-(2,2,2-trifluoro-1-hydroxyethyl)dispiro[cyclopropane-1,1′-cyclohexane-4′,3″-indoline]-1″-carbonyl)benzenesulfonamide] | 49 nM | 
CC1(NS(=O)(=O)c2cccc(C(=O)N3CC4(CCC5(CC5)CC4)c4cc(NS(C)(=O)=O)ccc43)c2)CCOC1 (stereo not drawn) [Compound 178, 3-(5″- (methylsulfonamido)dispiro[cyclopropane-1,1′-cyclohexane-4′,3″-indoline]-1″-carbonyl)-N-(3-methyltetrahydrofuran-3-yl)benzenesulfonamide] | 17 nM | 
CS(=O)(=O)Nc1ccc2c(c1)C1(CCC3(CC3)CC1)CN2C(=O)c1cccc(CN2CC(F)(F)C2)c1 [Compound 345, N-(1″-(3-((3,3-difluoroazetidin-1-yl)methyl)benzoyl)dispiro[cyclopropane-1,1′-cyclohexane-4′,3″-indolin]-5″-yl)methanesulfonamide] | 58 nM | 
CS(=O)(=O)Nc1ccc2c(c1)C1(CCC3(CC3)CC1)CN2C(=O)c1cccc([C@H](O)C2CCC2)c1 (single isomer, unassigned) [Compound 313b] | 15 nM | 
CCS(=O)(=O)Nc1ccc2c(c1)C1(CCC3(CC3)CC1)CN2C(=O)c1ccc(C(O)C2CCCC2)o1 (single isomer, unassigned) [Compound 367a] | 3.9 nM | 
CS(=O)(=O)Nc1ccc2c(c1)C1(CCC3(CC3)CC1)CN2C(=O)c1cccc(S(=O)(=O)NC2CC(O)C2)c1 (stereo not drawn) [Compound 218, N-(3-hydroxycyclobutyl)-3-(5″- (methylsulfonamido)dispiro[cyclopropane-1,1′-cyclohexane-4′,3″-indoline]-1″-carbonyl)benzenesulfonamide] | 100 nM | 
CC(C)(C)NS(=O)(=O)c1cccc(C(=O)N2CC3(CC=CC3)c3cc(NS(C)(=O)=O)ccc32)c1 [Compound 243, N-(tert-butyl)-3-(5′-(methylsulfonamido)spiro[cyclopentane-1,3′-indolin]-3-en-1′-carbonyl)benzenesulfonamide] | 140 nM | 
CS(=O)(=O)Nc1ccc2c(c1)C1(CCC3(CC3)CC1)CN2C(=O)c1cccc(S(=N)(=O)C2CCCC2)c1 (stereo not drawn) [Compound 287, N-(1″-(3-(cyclopentanesulfonimidoyl)benzoyl)dispiro[cyclopropane-1,1′-cyclohexane-4′,3″-indolin]-5″- yl)methanesulfonamide] | 17 nM | 
CS(=O)(=O)Nc1ccc2c(c1)C1(CCC3(CC3)CC1)CN2C(=O)c1cccc(NC2CCCC2)c1 [Compound 347, N-(1″-(3-(cyclopentylamino)benzoyl)dispiro [cyclopropane-1,1′-cyclohexane-4′,3″- indolin]-5″-yl)methanesulfonamide] | 280 nM | 
COc1ccc(C(=O)N2CC3(CCC4(CC4)CC3)c3cc(NS(C)(=O)=O)ccc32)cc1S(=O)(=O)NC12CC(C1)C2 [Compound 311, N-(bicyclo[1.1.1]pentan-1-yl)-2-methoxy-5-(5″-(methylsulfonamido)dispiro[cyclopropane-1,1′-cyclohexane-4′,3″-indoline]-1″- carbonyl)benzenesulfonamide] | 5.2 nM | 
CC(C)C(C)NS(=O)(=O)c1cccc(C(=O)N2CC3(CCC4(CC4)CC3)c3cc(NS(C)(=O)=O)ccc32)c1 (stereo not drawn) [Compound 210, N-(3-methylbutan-2-yl)-3-(5″- (methylsulfonamido)dispiro[cyclopropane-1,1′-cyclohexane-4′,3″-indoline]-1″-carbonyl)benzenesulfonamide] | 16 nM | 
